Data from US10149907B2, “Combinations of a photosensitizer with a hydrogen sulfide donor, thioredoxin inhibitor or nitroxide for use in photodynamic therapy” (UNIVERSITY OF EXETER, priority 2014, dated 2018).
Values joined by “and” are separate entries in the source; they are usually repeats but may differ in a detail not shown here. Equal entries are not always repeated. Where two headings read alike, the source gives them in different places.

Key:
A431 cells [1] = assay: Photodynamic cell killing in the presence of inhibitors of the thioredoxin antioxidant system or nitroxides (annexin V-FITC/propidium iodide flow cytometry); format: cell-based, human
A431 cells [2] = tested on: A431 cells
Summary of the method: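 In the PDT set-up, cells held at 2% O2 got 1 mM MAL with or without compound for 3 h, then 3 h recovery under 2% O2. Compound-alone cytotoxicity used cells seeded at 3×10^5/well for 24 h, treated for the relevant time.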

A431 cells [3] = assay: Mitochondrial reactive oxygen species generation during photodynamic irradiation, MitoSOX flow cytometry; format: cell-based, human; details: MAL 1 mM + co-treatment 10 μM, 3 hours, irradiated
Summary of the method: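 A431 cells received AP39-C10 (10, 100 or 1000 nM) for 5 h, MAL (1 mM) for 3 h and MitoSOX (2.5 μM) for 1 h, then were irradiated for 5 min (630 nm, 25 J/cm^2). Mitochondrial oxidant production was read immediately as MitoSOX fluorescence by flow cytometry and expressed as percent of untreated controls.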

thioredoxin reductase = molecular target: T1, thioredoxin reductase (Homo sapiens, UniProt Q16881); details: cited from earlier work
T1 sequence (Q16881 151-649 limits assumed): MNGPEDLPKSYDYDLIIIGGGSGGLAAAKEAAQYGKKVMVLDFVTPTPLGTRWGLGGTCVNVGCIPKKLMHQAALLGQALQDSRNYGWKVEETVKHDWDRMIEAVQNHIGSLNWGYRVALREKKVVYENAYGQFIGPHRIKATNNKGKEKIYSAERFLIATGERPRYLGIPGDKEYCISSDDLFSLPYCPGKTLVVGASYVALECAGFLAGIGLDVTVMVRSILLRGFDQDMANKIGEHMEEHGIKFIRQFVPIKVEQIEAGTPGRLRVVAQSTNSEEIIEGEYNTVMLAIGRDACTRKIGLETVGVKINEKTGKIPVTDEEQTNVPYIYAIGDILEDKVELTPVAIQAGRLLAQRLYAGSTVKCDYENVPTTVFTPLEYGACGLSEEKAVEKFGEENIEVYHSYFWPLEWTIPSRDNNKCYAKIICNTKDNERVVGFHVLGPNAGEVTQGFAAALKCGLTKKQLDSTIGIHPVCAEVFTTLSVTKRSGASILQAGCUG

O=[N+]([O-])c1ccc(Cl)c([N+](=O)[O-])c1 [DNCB, 1-chloro-2,4-dinitrobenzene]
modes of cell death (A431 cells [1]; 1 mM MAL + DNCB 10 μM or auranofin 100 nM + irradiation, compared to MAL and irradiation, FIG. 10): primarily increased necrotic cell death | cell death (A431 cells [1]; 1 mM MAL + co-treatment 10 μM, 3 h, irradiation): 46.3±4.0% and 43.8±3.9% | potentiating effect on MAL photodynamic cell killing (A431 cells [1]; summary of Examples 2A, 3A): mild potentiating effect | cell viability, percentage of untreated control (A431 cells [2]; 1 μM with 1 mM MAL, 3 hours): 97.4±6.9% | cell viability, percentage of untreated control (A431 cells [2]; 5 μM with 1 mM MAL, 3 hours): 99.4±7.3% | cell viability, percentage of untreated control (A431 cells [2]; 10 μM with 1 mM MAL, 3 hours): 98.6±6.2% | cell viability, percentage of untreated control (A431 cells [2]; 25 μM with 1 mM MAL, 3 hours): 79.0±4.3% | cell viability, percentage of untreated control (A431 cells [2]; 50 μM with 1 mM MAL, 3 hours): 57.7±1.4% | cell viability, percentage of untreated control (A431 cells [2]; 50 μM, 24 hours): 11.7±0.8% | cell viability, percentage of untreated control (A431 cells [2]; 100 μM, 24 hours): 14.8±4.2% | concentration up to which well tolerated / no cytotoxicity (A431 cells [2]; 24 hours): up to 10 μM | MitoSOX fluorescence, percentage of untreated cells (A431 cells [3]): 209.5±3.2% | inactivation of reduced thioredoxin reductase (thioredoxin reductase; 50 nM reduced enzyme, 5 minutes incubation with 100 μM DNCB, presence of NAD(P)H): Complete inactivation | inactivation of thioredoxin reductase faster than the alkylation of GSH (thioredoxin reductase): ~10,000 fold
